Ends that are not written are not given here. Me2 = dimethyl-lysine

These results are taken from article PMC10541411 (Nature Communications, 2023).

Assay [1] addresses T1, 53BP1^TT-PN (E1549P/D1550N) (Homo sapiens, UniProt Q12888, D1550N/E1549P).
T1 construct: The tandem Tudor domain of 53BP1 (53BP1^TT, residues 1481–1603) was purified as previously described; made in house
The experiment in a line: 1H-15N HSQC NMR titration of 15N-labeled 53BP1TT-PN. The format is binding. The note with it: up to fourfold molar excess. The procedure: (§1) All NMR data were collected at 25 °C on a 700 MHz Bruker Avance III spectrometer equipped with a cryoprobe. Data were processed and analyzed with NMRPipe[54] and NMRViewJ[55],[56].
(§2) To probe chemical shift perturbations, ^1H-^15N HSQC spectra were acquired on the following samples: 0.2 mM ^15N-labeled 53BP1^TT WT and 53BP1^TT-PN in 25 mM sodium phosphate, pH 7.0, 1.5 mM NaN3, 0.3 mM DSS, 90% H2O/10% D2O, free and incrementally titrated with various non-labeled inhibitors (UNC1078, UNC1118, UNC2170, UNC2991, UNC3474), as well as with H4KC20me2 and p53K382me2 peptides. Chemical shift perturbations (Δδ) were calculated using the Eq. (1):1 Δδ=(ΔN/5)^2+ΔH^2 where ΔN and ΔH are the corresponding differences in ^15N and ^1H chemical shifts between the bound and free forms of 53BP1.

Assay [2] deals with T2, 53BP1^TT (tandem Tudor domain of 53BP1, residues 1481–1603) (Homo sapiens, UniProt Q12888).
T2 construct: The tandem Tudor domain of 53BP1 (53BP1^TT, residues 1481–1603) was purified as previously described; made in house; host or cells: E. coli (only for the SAXS sample)
The experiment in a line: Isothermal titration calorimetry (ITC) of small molecules with 53BP1TT. It is filed as binding. The note with it: 25 °C, 50 mM Tris-HCl pH 7.5, 50 mM NaCl, one-site model; read-out: Kd (apparent, ITC). The method, then:
The ITC measurements were performed at 25 °C using a MicroCal iTC200 calorimeter. 53BP1^TT and the small molecules (UNC2991, UNC3351, UNC3474) were in 50 mM Tris-HCl, pH 7.5, 50 mM NaCl. In a typical run, 53BP1^TT was in the reaction cell at a concentration of 150 to 160 μM while the small molecule, in the titration syringe at a concentration of 0.8–2 mM, was delivered as 2 μL injections every 3 min. The titrations were paired with control experiments for heat of dilution. The titration of 53BP1^TT with UNC1118 was performed using a MicroCal VP-ITC calorimeter. ITC data were fitted to a one-site model using a Levenberg-Marquardt non-linear regression algorithm programmed in the Origin 7.0 software.
Supplementary Figure 1 | Interaction of 53BP1TT with small molecules probed using isothermal titration calorimetry (ITC) and small-angle X-ray scattering (SAXS). a, ITC of the interaction of UNC2991, UNC3351 and UNC3474 with 53BP1TT. Raw titration data and integrated heat measurements are shown. Indicated apparent Kds with associated standard deviations were determined by nonlinear least-squares analysis.
1.33 and 2 mg/mL with an exposure time of 0.5 s, without and with 10-fold molar excess of UNC1118 or UNC3474. The error bars in the scattering curves were generated using PRIMUS in the data analysis software ATSAS 2.4.2 and represent mean ± standard deviation calculated from signal intensity scaling and merging for the three different 53BP1TT concentrations. The Guinier plots, dimensionless Kratky plots and pair distance distribution functions derived from the SAXS data are shown. Also shown are the crystal structures of 53BP1TT and 53BP1TT-UNC3474 overlaid to the corresponding SAXS-based ab initio molecular envelopes generated using GASBOR 2.3i. c, Interaction of UNC1118 with 53BP1TT characterized using ITC (left) and NMR spectroscopy (right).
For the ITC, raw titration data and integrated heat measurements are shown. The indicated Kd with associated standard deviation was determined by nonlinear least-squares analysis.
(1 picture or pasted object on this page, not shown here)
For orientation: In ITC the heat of successive injections is recorded.

Another assay addresses 53BP1^TT WT (Homo sapiens, UniProt Q12888). The assay is described as follows: 1H-15N HSQC NMR titration of 15N-labeled wild-type 53BP1TT. It is filed as binding. Also on record: The tandem Tudor domain of 53BP1 (53BP1^TT, residues 1481–1603) was purified as previously described; made in house; host or cells: E. coli (only for the SAXS sample). The note with it: 15N-labeled WT 53BP1TT. The method, then: as §1, §2

The next assay addresses T3, 53BP1^TT (Homo sapiens, UniProt Q12888).
T3 construct: The tandem Tudor domain of 53BP1 (53BP1^TT, residues 1481–1603) was purified as previously described; made in house; host or cells: E. coli (only for the SAXS sample)
Also on record: method as in PMID 25590533. To be noted: previously identified; read-out: dissociation constant (Kd); cited from earlier work.

In another assay the target is T4, 53BP1^TT homodimer (Homo sapiens, UniProt Q12888).
T4 construct: The tandem Tudor domain of 53BP1 (53BP1^TT, residues 1481–1603) was purified as previously described; made in house; host or cells: E. coli (only for the SAXS sample)
The experiment in a line: 2D longitudinal 1H-15N-heteronuclear ZZ-exchange NMR spectroscopy, protomer interconversion. The format is binding. The note with it: 25 °C, 1 mM 15N-labeled 53BP1TT and 9 mM UNC2170, signals of E1524. The method, then: as §1
The protomer interconversion rates in the 53BP1^TT-UNC2970 complex were determined using 2D longitudinal ^1H-^15N-heteronuclear ZZ-exchange NMR spectroscopy[22]–[24]. For these experiments, a series of 11 spectra were acquired with mixing times of 0, 100, 200, 300, 400, 500, 600, 700, 800, 900, and 1000 ms in 25 mM sodium phosphate, pH 7.0, 100 mM NaCl, 1.5 mM NaN3, 0.3 mM DSS, 90% H2O/10% D2O. The interconversion rates were obtained from nonlinear fitting of auto peak and exchange peak intensities accounting for two-site exchange and ^15N R1 relaxation using the equations previously described for a two-state model.

The target in assay [3] is 53BP1^TT-CC (tandem Tudor domain of 53BP1, residues 1481-1603, E1549C/E1567C), disulfide-crosslinked homodimer (UniProt Q12888). The assay is described as follows: AUC; sedimentation velocity of 53BP1^TT-CC (20 uM) without DTT; 20 °C, 20 mM sodium phosphate pH 7.5, 50 mM NaCl.

T1 sequence (Q12888 1481-1603 E1549P/D1550N): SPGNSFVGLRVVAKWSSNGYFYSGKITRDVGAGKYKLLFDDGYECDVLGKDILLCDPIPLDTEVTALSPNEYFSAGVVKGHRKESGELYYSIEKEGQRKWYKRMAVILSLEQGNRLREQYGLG
Chain of 53BP1^TT WT (Q12888 1481-1603): as the sequence (Q12888 1481-1603 E1549P/D1550N) above, with P69E, N70D counted along it
T2 sequence (Q12888 1481-1603): as the sequence (Q12888 1481-1603 E1549P/D1550N) above, with P69E, N70D counted along it
T4 sequence (Q12888 1481-1603): as the sequence (Q12888 1481-1603 E1549P/D1550N) above, with P69E, N70D counted along it
T3 sequence (Q12888 1481-1603): as the sequence (Q12888 1481-1603 E1549P/D1550N) above, with P69E, N70D counted along it

For the molecule “p53K382me2: dimethylated p53 peptide (residues 377–386) purchased from GenScript (TSRHKK(Me2)LMFK) [reference compound]”, the “interaction with 53BP1TT-PN (1H-15N HSQC titration)” value (“interaction with 53BP1TT-PN” below) in assay [1] was “bound”.

With `CC(C)(C)NCCCNC(=O)c1cccc(I)c1` [UNC2991], the Kd in assay [2] worked out at 3.9 ± 0.4 µM. In addition, the “changes in signal positions in the 1H-15N HSQC spectrum of 53BP1TT upon titration” value (from here on “changes in signal positions”) on 53BP1^TT WT was “slow exchange on the chemical shift time scale”. For the same molecule, the “interaction with 53BP1TT-PN” value in assay [1] is on record as “did not interact”.

Turning to `CC(C)(C)NCCCNC(=O)c1cccc(Br)c1` [UNC2170], the Kd at 53BP1^TT was 22 ± 2.5 µM. Moreover, at 53BP1^TT homodimer, the “interconversion rate kAB between the two protomers in the 53BP1TT dimer” value was 1.7 s⁻¹ and the “interconversion rate kBA between the two protomers in the 53BP1TT dimer” value was determined as 1.2 s⁻¹. The “changes in signal positions” value at 53BP1^TT WT is reported as “slow exchange on the chemical shift time scale”. Moreover, the “interaction with 53BP1TT-PN” value in assay [1] is reported as “did not interact”.

Turning to “H4KC20me2: dimethylated histone H4 peptide (residues 12–25) with chemically installed dimethyl-lysine analog (KGGAKRHRCVLRDN; dimethyl-lysine analog at position 20 (KC20me2), installed chemically) [reference compound]”, the “interaction with 53BP1TT-PN” value in assay [1] is given as “bound”.

On to “53BP1^TT-CC (tandem Tudor domain of 53BP1, residues 1481-1603, E1549C/E1567C), disulfide-crosslinked homodimer (from UniProt Q12888 1481-1603) (domain or fragment)”, for which the stoichiometry N in assay [3] was determined as 2.

Consider `CC(C)(C)NCCCNC(=O)c1cccc(C(F)(F)F)c1` [UNC3351], for which the Kd in assay [2] was 6.8 ± 0.4 µM. Also, the “changes in signal positions” value at 53BP1^TT WT was “slow exchange on the chemical shift time scale”.

As a reminder, the stoichiometry N is a count of units in the complex or per binding partner.
